# Measurements taken from ChEMBL document CHEMBL1201862, “PubChem BioAssay data set” (2004).
# The source made the active and inactive calls.
# Assays:
# Cytochrome P450 2C9 = Cytochrome P450 2C9 (Homo sapiens, UniProt P11712)
# Cytochrome P450 1A2 = biological target: T1, Cytochrome P450 1A2 (Homo sapiens, UniProt P05177);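 also: PubChem cytochrome P450 panel assay, CYP1A2 panel member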
# T1 sequence (P05177 whole entry): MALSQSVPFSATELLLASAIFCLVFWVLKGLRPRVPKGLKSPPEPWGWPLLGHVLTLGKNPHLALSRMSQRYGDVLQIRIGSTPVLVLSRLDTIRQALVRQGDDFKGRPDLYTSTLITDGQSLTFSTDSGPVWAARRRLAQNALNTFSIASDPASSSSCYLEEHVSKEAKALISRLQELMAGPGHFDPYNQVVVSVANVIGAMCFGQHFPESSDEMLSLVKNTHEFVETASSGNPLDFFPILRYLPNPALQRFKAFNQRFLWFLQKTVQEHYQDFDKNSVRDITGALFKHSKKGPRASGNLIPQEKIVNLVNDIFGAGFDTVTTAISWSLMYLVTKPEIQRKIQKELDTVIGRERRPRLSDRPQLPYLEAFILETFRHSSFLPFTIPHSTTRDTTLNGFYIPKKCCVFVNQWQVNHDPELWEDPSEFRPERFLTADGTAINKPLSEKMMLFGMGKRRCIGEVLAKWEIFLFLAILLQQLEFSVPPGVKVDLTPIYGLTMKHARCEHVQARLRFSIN
# [1] = biological target: T2, Adenosylmethionine-8-amino-7-oxononanoate aminotransferase (Mycobacterium tuberculosis, UniProt P9WQ81); experiment: Mycobacterium tuberculosis BioA enzyme inhibitor Measured in Biochemical System Using Plate Reader - 2163-02_Inhibitor_Dose_CherryPick_Activity.; assay type: functional, Mycobacterium tuberculosis UT205
# T2 sequence (P9WQ81 whole entry): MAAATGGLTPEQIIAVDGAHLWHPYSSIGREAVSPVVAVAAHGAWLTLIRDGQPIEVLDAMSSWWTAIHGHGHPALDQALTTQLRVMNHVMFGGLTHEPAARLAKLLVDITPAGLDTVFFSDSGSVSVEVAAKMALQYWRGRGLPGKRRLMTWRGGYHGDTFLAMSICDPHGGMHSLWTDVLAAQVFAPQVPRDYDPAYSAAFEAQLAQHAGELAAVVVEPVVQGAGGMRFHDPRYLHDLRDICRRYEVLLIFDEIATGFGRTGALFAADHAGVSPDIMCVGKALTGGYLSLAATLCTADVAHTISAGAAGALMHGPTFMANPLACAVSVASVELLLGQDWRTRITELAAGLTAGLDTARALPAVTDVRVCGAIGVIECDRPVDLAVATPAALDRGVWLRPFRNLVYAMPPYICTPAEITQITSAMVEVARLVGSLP
# [2] = Luminescence Cell-Based Dose Retest to Confirm Inhibitors of Cancer Stem Cells. [Related pubchem assays (depositor defined):AID2717, AID2721]; assay type: functional; details: Homo sapiens
# Protein Wnt-3a = Protein Wnt-3a (Mus musculus, UniProt P27467); experiment: Wnt3a-driven reporter signaling inhibition, dose response, selectivity assay for Gli-SUFU antagonist project, Wnt-LIGHT cells, luminescence (AID 651570); assay type: functional; details: read-out: IC50_Mean;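 also: Wnt-LIGHT reporter cells stimulated with conditioned medium from Wnt3a-producing cells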
# Protein Wnt-3a, sequence (P27467 whole entry): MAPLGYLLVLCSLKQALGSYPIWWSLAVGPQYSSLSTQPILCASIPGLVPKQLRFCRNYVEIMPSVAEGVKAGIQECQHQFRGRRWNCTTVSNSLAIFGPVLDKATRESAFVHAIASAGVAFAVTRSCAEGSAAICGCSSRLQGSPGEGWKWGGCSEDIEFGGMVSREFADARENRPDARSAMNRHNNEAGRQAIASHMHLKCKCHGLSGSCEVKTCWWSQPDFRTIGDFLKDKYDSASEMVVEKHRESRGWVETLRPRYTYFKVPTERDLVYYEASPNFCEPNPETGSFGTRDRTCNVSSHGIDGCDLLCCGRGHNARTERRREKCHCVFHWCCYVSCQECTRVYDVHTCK
# [3] = CRF-BP/CRF-R2 complex antagonists, dose response, cell-based, uHTS hits, 384-well (AID 651639); assay type: functional, Homo sapiens; details: read-out: IC50_Mean
# Nonstructural protein 1 = Nonstructural protein 1 (Influenza A virus, UniProt Q194T2); assay type: functional, Influenza A virus (A/California/07/2009(H1N1))
# Nonstructural protein 1, sequence (Q194T2 whole entry): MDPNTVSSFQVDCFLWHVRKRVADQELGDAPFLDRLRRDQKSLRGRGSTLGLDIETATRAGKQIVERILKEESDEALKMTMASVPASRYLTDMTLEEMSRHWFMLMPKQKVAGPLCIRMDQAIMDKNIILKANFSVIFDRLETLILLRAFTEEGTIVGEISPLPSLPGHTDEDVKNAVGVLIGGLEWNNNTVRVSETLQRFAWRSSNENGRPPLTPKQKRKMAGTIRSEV
# [4] = biological target: T3, Corticotropin-releasing factor receptor 2/Corticotropin-releasing factor-binding protein (Homo sapiens, UniProt P24387+Q13324); experiment: Dose Response confirmation of uHTS hits for small molecule antagonists of the CRF-binding protein and CRF-R2 receptor complex.; assay type: functional; details: read-out: IC50_Mean
# T3 sequence (Q13324 whole entry): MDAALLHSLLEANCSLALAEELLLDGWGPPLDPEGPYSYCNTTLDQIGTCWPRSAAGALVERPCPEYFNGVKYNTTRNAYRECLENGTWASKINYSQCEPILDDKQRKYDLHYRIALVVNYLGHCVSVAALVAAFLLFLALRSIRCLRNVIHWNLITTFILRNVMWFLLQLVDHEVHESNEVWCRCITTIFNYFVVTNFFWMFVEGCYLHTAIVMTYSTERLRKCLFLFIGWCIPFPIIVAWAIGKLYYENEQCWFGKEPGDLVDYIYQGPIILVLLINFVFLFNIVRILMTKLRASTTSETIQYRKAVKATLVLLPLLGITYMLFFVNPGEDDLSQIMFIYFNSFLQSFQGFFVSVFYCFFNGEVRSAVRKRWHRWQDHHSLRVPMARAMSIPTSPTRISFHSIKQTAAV
# T3 sequence (P24387 whole entry): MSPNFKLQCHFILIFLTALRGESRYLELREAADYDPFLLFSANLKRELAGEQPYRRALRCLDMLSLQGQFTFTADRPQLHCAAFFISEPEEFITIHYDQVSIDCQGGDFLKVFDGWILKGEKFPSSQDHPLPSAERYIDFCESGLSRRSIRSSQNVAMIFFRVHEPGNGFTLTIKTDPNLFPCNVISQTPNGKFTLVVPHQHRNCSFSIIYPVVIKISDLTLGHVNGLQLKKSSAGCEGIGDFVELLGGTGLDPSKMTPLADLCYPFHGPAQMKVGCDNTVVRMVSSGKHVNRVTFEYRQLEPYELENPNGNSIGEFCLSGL
# [5] = biological target: T3, Corticotropin-releasing factor receptor 2/Corticotropin-releasing factor-binding protein; experiment: activators of CRF receptor 2 with binding protein – uHTS hits, confirmation (AID 602473); assay type: functional; details: read-out: EC50_Mean
# [6] = control 3'UTR Renilla luciferase suppression, dose response, counter-screen for Shn3 inhibitor project, cell-based, Clone20-Shn3RL, cherry-picked (AID 624133); assay type: functional
# [7] = Shn3 3'UTR reporter inhibitors, dose response, cell-based, Clone20 osteoblasts, firefly luciferase, cherry-picked (AID 624132); assay type: functional;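 also: firefly luciferase luminescence from reporter carrying the Shn3 3'UTR in osteoblasts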
# [8] = HepG2 cell cytotoxicity, dose response, cytotoxicity control for Shn3 inhibitor project, CellTiter-Glo, cherry-picked (AID 624134); assay type: functional, cell-based
# INS1 = experiment: beta cell apoptosis inhibitors, cytokine rescue, dose response, luminescence, retest (AID 449756); assay type: functional, cell-based; details: Rattus norvegicus;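 also: cell death triggered by IL-1 beta plus TNF-alpha plus IFN-gamma mixture; protective hits raise ATP signal compared with cytokine alone wells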
# Cytochrome P450 2C19 = Cytochrome P450 2C19 (Homo sapiens, UniProt P33261); experiment: Cytochrome panel assay with activity outcomes. Panel member name: p450-cyp2c19 Compounds with AC50 equal or less than 10 uM are considered active; assay type: functional; details: read-out: AC50
# Cytochrome P450 2C19, sequence (P33261 whole entry): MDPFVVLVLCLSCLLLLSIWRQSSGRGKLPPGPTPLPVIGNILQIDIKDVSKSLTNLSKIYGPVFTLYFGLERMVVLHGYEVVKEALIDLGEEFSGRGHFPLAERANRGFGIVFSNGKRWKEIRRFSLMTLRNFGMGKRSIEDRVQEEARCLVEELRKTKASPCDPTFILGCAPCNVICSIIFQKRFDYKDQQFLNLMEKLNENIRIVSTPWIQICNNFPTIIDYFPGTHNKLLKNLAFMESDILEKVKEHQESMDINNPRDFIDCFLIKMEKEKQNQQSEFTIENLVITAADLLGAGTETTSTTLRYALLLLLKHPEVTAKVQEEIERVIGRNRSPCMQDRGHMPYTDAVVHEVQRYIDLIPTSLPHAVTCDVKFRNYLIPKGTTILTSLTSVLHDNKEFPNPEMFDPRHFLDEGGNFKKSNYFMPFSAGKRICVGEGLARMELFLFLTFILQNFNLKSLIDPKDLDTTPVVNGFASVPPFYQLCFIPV
# Cytochrome P450 3A4 = Cytochrome P450 3A4 (Homo sapiens, UniProt P08684);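 also: CYP3A4 tested as one member of a cytochrome P450 panel screen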
# Cytochrome P450 3A4, sequence (P08684 whole entry): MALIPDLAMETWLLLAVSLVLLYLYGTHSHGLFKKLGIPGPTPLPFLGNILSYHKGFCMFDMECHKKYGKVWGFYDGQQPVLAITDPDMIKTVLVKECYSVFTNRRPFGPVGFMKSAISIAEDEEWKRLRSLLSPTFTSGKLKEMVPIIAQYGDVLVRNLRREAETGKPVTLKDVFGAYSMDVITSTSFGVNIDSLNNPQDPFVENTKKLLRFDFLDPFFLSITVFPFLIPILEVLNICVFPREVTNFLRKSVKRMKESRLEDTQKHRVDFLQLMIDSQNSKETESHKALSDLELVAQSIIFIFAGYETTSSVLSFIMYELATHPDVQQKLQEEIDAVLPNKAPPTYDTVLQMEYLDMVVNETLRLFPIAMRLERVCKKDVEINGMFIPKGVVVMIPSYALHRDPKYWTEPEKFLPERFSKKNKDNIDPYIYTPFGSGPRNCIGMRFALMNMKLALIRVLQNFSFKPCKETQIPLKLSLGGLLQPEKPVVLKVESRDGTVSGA
# Cytochrome P450 2C9, sequence (P11712 whole entry): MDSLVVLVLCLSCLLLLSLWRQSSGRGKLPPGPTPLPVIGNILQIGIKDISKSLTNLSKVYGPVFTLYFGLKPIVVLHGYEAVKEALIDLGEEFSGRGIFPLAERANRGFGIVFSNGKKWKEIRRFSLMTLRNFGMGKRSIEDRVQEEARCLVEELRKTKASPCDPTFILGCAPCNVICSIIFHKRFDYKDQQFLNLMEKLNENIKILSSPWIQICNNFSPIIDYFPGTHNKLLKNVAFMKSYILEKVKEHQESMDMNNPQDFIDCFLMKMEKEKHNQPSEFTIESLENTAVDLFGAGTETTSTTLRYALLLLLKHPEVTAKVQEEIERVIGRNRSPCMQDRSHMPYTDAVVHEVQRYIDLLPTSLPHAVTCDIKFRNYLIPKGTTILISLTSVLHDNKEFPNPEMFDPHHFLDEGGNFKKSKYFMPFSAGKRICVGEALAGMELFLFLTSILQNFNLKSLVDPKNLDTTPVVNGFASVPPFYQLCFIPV
smiles,measurement,setting,value
O=C(c1cc(-c2ccco2)on1)N1CCOCC1,AC50,Cytochrome P450 2C9,inconclusive
same,AC50,Cytochrome P450 1A2,0.0251 µM (inconclusive)
Cc1nc2c(C(=O)N3CCN(c4ccccn4)CC3)cnn2c(C)c1Cc1cccc(Cl)c1,AC50,[1],3.39 µM (active)
O=C(N[C@H]1C/C=C\C[C@@H](CC(=O)N(CCO)Cc2ccccc2)C(=O)NC[C@H](c2ccccc2)OC1=O)OCC1c2ccccc2-c2ccccc21,AC50,[2],2.24 µM (active)
same,IC50,Protein Wnt-3a,7.16 µM (active)
CCc1nn(CCCC(=O)N(C)Cc2ccccc2)c(=O)c2cc3occc3n12,AC50,[1],4.73 µM (active)
CCOc1ccc(N/N=C2\C(=O)Nn3c2nc2c(c3=O)CCCC2)cc1,IC50,[3],> 20 µM (inactive)
same,IC50,Nonstructural protein 1,> 100 µM (active)
same,IC50,[4],4.73 µM (active)
same,EC50,[5],> 53 µM (inactive)
CCn1/c(=N\C(=O)CCS(=O)(=O)c2ccccc2)sc2cccc(OC)c21,IC50,Protein Wnt-3a,0.803 µM (active)
same,AC50,[6],3.05 µM (active)
same,AC50,[7],1.28 µM (active)
same,AC50,[8],> 70 µM (inactive)
same,AC50,INS1,5.08 µM (active)
CN1c2ccc(-c3cccc(F)c3)cc2[C@H]2[C@H](CCN2C(=O)c2ccncc2)[C@H]1CO,AC50,[1],0.816 µM (active)
CCn1c(C)nc2c1C(=O)c1ccccc1C2=O,AC50,Cytochrome P450 2C9,inconclusive
same,AC50,Cytochrome P450 2C19,20 µM (inconclusive)
same,AC50,Cytochrome P450 3A4,20 µM (inconclusive)
